What was measured:
[1] = test system: T47D cells; test: T47D cell proliferation assay (BrdU incorporation); type: cell-based; settings: Homo sapiens, decrease in trimegestone induced BrdU incorporation (0.03 nM trimegestone), individual studies
Experimental: 3. T47D Cell Proliferation Assay
The objective of this assay is the determination of progestational and antiprogestational potency by using a cell proliferation assay in T47D cells. A compound's effect on DNA synthesis in T47D cells is measured.
DMEM:F12 (1:1) (GIBCO, BRL) supplemented with 10% (v/v) fetal bovine serum (not heat-inactivated), 100 U/ml penicillin, […], and 2 mM GlutaMax (GIBCO, BRL).
Minimum Essential Medium (MEM) (#51200-038GIBCO, BRL) phenol red-free supplemented with 0.5% charcoal stripped fetal bovine serum, 100 U/ml penicillin, […] streptomycin, and 2 mM GlutaMax (GIBCO, BRL). […]
At the end of BrdU labeling, the medium is removed and BrdU incorporation is measured using a cell proliferation ELISA kit (#RPN 250, Amersham Life Science) according to manufacturer's instructions. […] Then 25 μl of 1 M sulfuric acid is added to each well to stop color reaction and optical density is read in a plate reader at 450 nm within 5 min.
Square root-transformed data are used for analysis of variance and nonlinear dose response curve fitting for both agonist and antagonist modes. […] EC50 or IC50 values are calculated from the retransformed values. […]

[2] = test system: rat uterine decidualization; test: Rat decidualization assay; settings: average over dose-response curves; decidual response; s.c.

Row | SMILES | average EC50 [2] [mg/kg. s.c.] | further results
1 | CC1(C)OC(=O)Nc2ncc(-c3cccc(Cl)c3)cc21 [Example 4, 6-(3-Chloro-phenyl)-4,4-dimethyl-1,4-dihydro-3-oxa-1,8-diaza-naphthalene-2-one] | – | melting point: 214 to 215 °C
2 | CC#C[C@]1(O)CC[C@H]2[C@@H]3CCC4=CC(=O)CCC4=C3[C@@H](c3ccc(N(C)C)cc3)C[C@@]21C [RU486] | – | IC50 [1]: 0.011 nM
3 | C#C[C@]1(O)CC[C@H]2[C@@H]3CCC4=CC(=O)CC[C@@H]4[C@H]3CC[C@@]21CC [Levonorgestrel] | 0.10 | –
4 | C#C[C@]1(O)CC[C@H]2[C@@H]3CCC4=CC(=O)CC[C@@H]4[C@H]3C(=C)C[C@@]21CC [3-Ketodesogestrel] | 0.10 | –
